Experimental data published in US20080260653A1, “Transdermal Delivery Systems and Transdermal Chelation Preparations” (priority 2004, published 2008).

Assay: Thermal stability and activity test of chelators (copper oxide removal test)
Format: physicochemical
Settings: 143 degrees F. for 5 minutes
Protocol: A fresh copper surface is prepared. The surface is gently heat oxidized. Next, the chelation quality was determined. About 0.0001 grams per drop (or 0.0029 g/ml) chelator effectively removed all the oxide form 1 cm sq in two minutes at a temperature of 98-99 degrees F. Then, the solution was diluted at 10% intervals to determine the point where it would not remove the oxide. There was a step wise decrease in chelation effect across the Cu test sample plate. A standard of chelation was graphed, see FIGS. 1 and 2.
A similar test is used for thermal stability and activity. […] Also, the identical test is used to determine batch activity. A crude field test is to put the chelator on a penny and heat to 98 degrees.

O=C(O)CN(CCN(CC(=O)O)CC(=O)O)CC(=O)O [EDTA, ethylenediamine-N,N,N′,N′-tetraacetic acid]
inactive (loss of chelator activity on heating): 100%

O=S(=O)([O-])CC(S)CS.[Na+] (centres unmarked) [DMPS, 2,3-dimercaptopropanesulphonate sodium]
inactive (loss of chelator activity on heating): 100%
